Results: US10377753B2, “Substituted 4-azaindoles and their use as GluN2B receptor modulators” (Janssen Pharmaceutica NV, priority 2015, dated 2019)

Target: cloned human NR1/NR2B ion channels (Homo sapiens (Human), UniProt Q05586+Q13224)
Test: HNR2BC: effects of test articles on cloned human NR1/NR2B ion channels expressed in mammalian cells (FLIPR calcium flux)
Format: cell-based
Conditions: cloned human NR1/NR2B ion channels, Table 5
Outline: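 Compounds were added to dye-loaded cells for 5 min with fluorescence monitored for agonism, followed by co-agonists (glutamate ~EC80, glycine 10 μM saturating) for 5 min. Cells stably expressed inducible human NR1/NR2B, and the buffer was pH 7.4. The FLIPR Ca2+ flux signal was normalized against control wells.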

cloned human NR1/NR2B ion channels, sequence (Q13224 27-1484, other chains not shown): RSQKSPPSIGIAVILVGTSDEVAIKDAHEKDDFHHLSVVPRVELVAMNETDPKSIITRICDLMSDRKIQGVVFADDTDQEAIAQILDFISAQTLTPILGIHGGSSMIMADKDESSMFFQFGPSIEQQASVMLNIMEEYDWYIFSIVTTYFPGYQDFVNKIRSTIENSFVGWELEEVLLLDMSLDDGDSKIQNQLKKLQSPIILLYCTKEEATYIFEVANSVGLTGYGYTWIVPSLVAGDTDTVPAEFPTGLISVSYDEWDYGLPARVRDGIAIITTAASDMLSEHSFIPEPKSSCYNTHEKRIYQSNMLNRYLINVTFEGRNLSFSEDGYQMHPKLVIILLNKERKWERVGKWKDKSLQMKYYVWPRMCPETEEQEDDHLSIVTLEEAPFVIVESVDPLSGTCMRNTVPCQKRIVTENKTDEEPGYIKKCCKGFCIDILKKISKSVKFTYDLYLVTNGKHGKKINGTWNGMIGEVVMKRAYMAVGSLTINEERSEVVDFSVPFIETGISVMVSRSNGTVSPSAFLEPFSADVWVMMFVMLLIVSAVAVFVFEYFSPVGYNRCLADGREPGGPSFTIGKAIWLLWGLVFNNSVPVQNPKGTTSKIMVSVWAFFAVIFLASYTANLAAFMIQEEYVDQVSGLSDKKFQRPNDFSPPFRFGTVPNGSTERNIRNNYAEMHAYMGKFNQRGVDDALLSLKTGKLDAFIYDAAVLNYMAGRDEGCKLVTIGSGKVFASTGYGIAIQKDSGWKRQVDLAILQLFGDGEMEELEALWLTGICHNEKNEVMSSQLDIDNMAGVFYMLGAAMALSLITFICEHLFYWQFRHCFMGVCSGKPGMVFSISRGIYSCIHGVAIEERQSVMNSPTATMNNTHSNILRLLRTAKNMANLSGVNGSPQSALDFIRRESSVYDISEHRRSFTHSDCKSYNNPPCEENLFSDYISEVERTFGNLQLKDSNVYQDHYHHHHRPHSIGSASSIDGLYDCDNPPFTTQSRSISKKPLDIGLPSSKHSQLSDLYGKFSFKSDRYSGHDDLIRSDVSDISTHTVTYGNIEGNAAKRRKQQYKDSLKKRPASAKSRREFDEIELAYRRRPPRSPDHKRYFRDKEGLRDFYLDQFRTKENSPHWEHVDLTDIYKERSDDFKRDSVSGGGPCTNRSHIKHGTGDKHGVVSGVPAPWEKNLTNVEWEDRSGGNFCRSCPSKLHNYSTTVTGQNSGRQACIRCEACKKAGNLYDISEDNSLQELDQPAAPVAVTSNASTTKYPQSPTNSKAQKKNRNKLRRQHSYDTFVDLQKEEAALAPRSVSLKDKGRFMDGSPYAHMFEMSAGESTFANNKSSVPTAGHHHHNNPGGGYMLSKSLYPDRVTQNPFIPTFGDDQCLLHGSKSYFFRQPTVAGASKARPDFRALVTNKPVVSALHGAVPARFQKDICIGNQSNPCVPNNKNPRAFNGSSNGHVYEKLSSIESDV

SMILES | IC50 [nM]
Cc1ccc(-c2cnc3c(Cl)cn(CC(=O)N4CC(F)C4)c3c2)s1 [Example 412, 2-[3-Chloro-6-(5-methyl-2-thienyl)pyrrolo[3,2-b]pyridin-1-yl]-1-(3-fluoroazetidin-1-yl)ethanone] | 7940
Cc1csc(-c2cnc3c(Cl)cn(CC(=O)N4CC(F)C4)c3c2)c1 [Example 416, 2-[3-Chloro-6-(4-methyl-2-thienyl)pyrrolo[3,2-b]pyridin-1-yl]-1-(3-fluoroazetidin-1-yl)ethanone] | 2510
O=C(Cn1cc(Cl)c2ncc(-c3cccs3)cc21)N1CC(F)C1 [Example 417, 2-[3-Chloro-6-(2-thienyl)pyrrolo[3,2-b]pyridin-1-yl]-1-(3-fluoroazetidin-1-yl)ethanone] | 63.1
O=C(Cn1cc(Cl)c2ncc(-c3cc(Cl)cs3)cc21)N1CC(F)C1 [Example 418, 2-[3-Chloro-6-(4-chloro-2-thienyl)pyrrolo[3,2-b]pyridin-1-yl]-1-(3-fluoroazetidin-1-yl)ethanone] | 501
CCN(C)C(=O)Cn1ccc2ncc(-c3ccc(F)cc3)cc21 [Example 419, N-Ethyl-2-[6-(4-fluorophenyl)pyrrolo[3,2-b]pyridin-1-yl]-N-methyl-acetamide] | 63.1
CN(C)C(=O)Cn1cc(Cl)c2ncc(-c3cccs3)cc21 [Example 420, 2-[3-Chloro-6-(2-thienyl)pyrrolo[3,2-b]pyridin-1-yl]-N,N-dimethyl-acetamide] | 631
CCc1ccc(-c2cnc3c(Cl)cn(CC(=O)N(C)C)c3c2)s1 [Example 421, 2-[3-Chloro-6-(5-ethyl-2-thienyl)pyrrolo[3,2-b]pyridin-1-yl]-N,N-dimethyl-acetamide] | 631
O=C(Cn1cc(Cl)c2ncc(-c3cc(Cl)cs3)cc21)N1CCC1 [Example 422, 1-(Azetidin-1-yl)-2-[3-chloro-6-(4-chloro-2-thienyl)pyrrolo[3,2-b]pyridin-1-yl]ethanone] | 200
CN(C)C(=O)Cn1ccc2ncc(-c3cccc(C(F)(F)F)c3F)cc21 [Example 425, 2-[6-[2-Fluoro-3-(trifluoromethyl)phenyl]pyrrolo[3,2-b]pyridin-1-yl]-N,N-dimethyl-acetamide] | 316
Cc1sc(C)c(-c2cnc3ccn(CC(=O)N(C)C)c3c2)c1C [Example 428, N,N-Dimethyl-2-[6-(2,4,5-trimethyl-3-thienyl)pyrrolo[3,2-b]pyridin-1-yl]acetamide] | 100
CN(C)C(=O)Cn1ccc2ncc(-c3ccc(F)cc3)cc21 [Example 430, 2-[6-(4-Fluorophenyl)pyrrolo[3,2-b]pyridin-1-yl]-N,N-dimethyl-acetamide] | 63.1
CN(C)C(=O)Cn1ccc2ncc(-c3ccccc3F)cc21 [Example 431, 2-[6-(2-Fluorophenyl)pyrrolo[3,2-b]pyridin-1-yl]-N,N-dimethyl-acetamide] | 251
Cc1cccc(-c2cnc3ccn(CC(=O)N(C)C)c3c2)c1F [Example 432, 2-[6-(2-Fluoro-3-methyl-phenyl)pyrrolo[3,2-b]pyridin-1-yl]-N,N-dimethyl-acetamide] | 794
CN(C)C(=O)Cn1ccc2ncc(-c3ccc(F)c(C(F)(F)F)c3)cc21 [Example 436, 2-[6-[4-Fluoro-3-(trifluoromethyl)phenyl]pyrrolo[3,2-b]pyridin-1-yl]-N,N-dimethyl-acetamide] | 79.4
CN(C)C(=O)Cn1ccc2ncc(-c3ccc(F)c(F)c3F)cc21 [Example 437, N,N-Dimethyl-2-[6-(2,3,4-trifluorophenyl)pyrrolo[3,2-b]pyridin-1-yl]acetamide] | 316
CN(C)C(=O)Cn1ccc2ncc(-c3cc(Cl)sc3Cl)cc21 [Example 440, 2-[6-(2,5-Dichloro-3-thienyl)pyrrolo[3,2-b]pyridin-1-yl]-N,N-dimethyl-acetamide] | 126
Cc1ccc(F)c(-c2cnc3ccn(CC(=O)N(C)C)c3c2)c1F [Example 444, 2-[6-(2,6-Difluoro-3-methyl-phenyl)pyrrolo[3,2-b]pyridin-1-yl]-N,N-dimethyl-acetamide] | 631
Cc1ccc(F)c(-c2cnc3ccn(CC(=O)N(C)C)c3c2)c1 [Example 445, 2-[6-(2-Fluoro-5-methyl-phenyl)pyrrolo[3,2-b]pyridin-1-yl]-N,N-dimethyl-acetamide] | 398
O=C(Cn1ccc2ncc(-c3cccc(C(F)F)c3)cc21)N1CCC1 [Example 446, 1-(Azetidin-1-yl)-2-[6-[3-(difluoromethyl)phenyl]pyrrolo[3,2-b]pyridin-1-yl]ethanone] | 100
CCc1cccc(-c2cnc3ccn(CC(=O)N(C)C)c3c2)c1 [Example 449, 2-[6-(3-Ethylphenyl)pyrrolo[3,2-b]pyridin-1-yl]-N,N-dimethyl-acetamide] | 63.1
O=C(Cn1ccc2ncc(-c3ccc(F)c(Cl)c3)cc21)N1CCC1 [Example 456, 1-(Azetidin-1-yl)-2-[6-(3-chloro-4-fluoro-phenyl)pyrrolo[3,2-b]pyridin-1-yl]ethanone] | 63.1
O=C(Cn1ccc2ncc(-c3cccc(C(F)F)c3)cc21)N1CC(F)C1 [Example 458, 2-[6-[3-(Difluoromethyl)phenyl]pyrrolo[3,2-b]pyridin-1-yl]-1-(3-fluoroazetidin-1-yl)ethanone] | 398
Cc1c(F)ccc(-c2cnc3ccn(CC(=O)N4CC(F)C4)c3c2)c1F [Example 460, 2-[6-(2,4-Difluoro-3-methyl-phenyl)pyrrolo[3,2-b]pyridin-1-yl]-1-(3-fluoroazetidin-1-yl)ethanone] | 63.1

More lines, in order of falling IC50, values ahead:

IC50 [nM] | SMILES
63.1 | Cc1cc(-c2cnc3ccn(CC(=O)N(C)CC(F)(F)F)c3c2)ccc1F [Example 415, 2-[6-(4-Fluoro-3-methyl-phenyl)pyrrolo[3,2-b]pyridin-1-yl]-N-methyl-N-(2,2,2-trifluoroethyl)acetamide]
50.1 | O=C(Cn1cc(Cl)c2ncc(-c3ccc(Cl)s3)cc21)N1CC(F)C1 [Example 413, 2-[3-Chloro-6-(5-chloro-2-thienyl)pyrrolo[3,2-b]pyridin-1-yl]-1-(3-fluoroazetidin-1-yl)ethanone]
50.1 | CN(C)C(=O)Cn1ccc2ncc(-c3csc(Cl)c3)cc21 [Example 439, 2-[6-(5-Chloro-3-thienyl)pyrrolo[3,2-b]pyridin-1-yl]-N,N-dimethyl-acetamide]
50.1 | Cc1cccc(-c2cnc3ccn(CC(=O)N4CCC4)c3c2)c1F [Example 451, 1-(Azetidin-1-yl)-2-[6-(2-fluoro-3-methyl-phenyl)pyrrolo[3,2-b]pyridin-1-yl]ethanone]
39.8 | CN(C)C(=O)Cn1cc(Cl)c2ncc(-c3cc(Cl)cs3)cc21 [Example 414, 2-[3-Chloro-6-(4-chloro-2-thienyl)pyrrolo[3,2-b]pyridin-1-yl]-N,N-dimethyl-acetamide]
39.8 | CN(C)C(=O)Cn1cc(Cl)c2ncc(-c3ccc(Cl)s3)cc21 [Example 423, 2-[3-Chloro-6-(5-chloro-2-thienyl)pyrrolo[3,2-b]pyridin-1-yl]-N,N-dimethyl-acetamide]
39.8 | CN(C)C(=O)Cn1ccc2ncc(-c3cccc(F)c3)cc21 [Example 450, 2-[6-(3-Fluorophenyl)pyrrolo[3,2-b]pyridin-1-yl]-N,N-dimethyl-acetamide]
39.8 | CCN(C)C(=O)Cn1ccc2ncc(-c3cccc(C)c3)cc21 [Example 459, N-Ethyl-N-methyl-2-[6-(m-tolyl)pyrrolo[3,2-b]pyridin-1-yl]acetamide]
31.6 | CCc1ccc(-c2cnc3c(Cl)cn(CC(=O)N4CC(F)C4)c3c2)s1 [Example 424, 2-[3-Chloro-6-(5-ethyl-2-thienyl)pyrrolo[3,2-b]pyridin-1-yl]-1-(3-fluoroazetidin-1-yl)ethanone]
31.6 | Cc1cc(-c2cnc3ccn(CC(=O)N(C)C)c3c2)c(C)s1 [Example 427, 2-[6-(2,5-Dimethyl-3-thienyl)pyrrolo[3,2-b]pyridin-1-yl]-N,N-dimethyl-acetamide]
31.6 | O=C(Cn1ccc2ncc(-c3ccc(F)c(F)c3F)cc21)N1CC(F)C1 [Example 455, 1-(3-Fluoroazetidin-1-yl)-2-[6-(2,3,4-trifluorophenyl)pyrrolo[3,2-b]pyridin-1-yl]ethanone]
31.6 | CCN(C)C(=O)Cn1ccc2ncc(-c3ccc(F)c(F)c3)cc21 [Example 461, 2-[6-(3,4-Difluorophenyl)pyrrolo[3,2-b]pyridin-1-yl]-N-ethyl-N-methyl-acetamide]
25.1 | CN(C)C(=O)Cn1ccc2ncc(-c3ccccc3)cc21 [Example 433, N,N-Dimethyl-2-(6-phenylpyrrolo[3,2-b]pyridin-1-yl)acetamide]
25.1 | Cc1c(F)ccc(-c2cnc3ccn(CC(=O)N4CCC4)c3c2)c1F [Example 452, 1-(Azetidin-1-yl)-2-[6-(2,4-difluoro-3-methyl-phenyl)pyrrolo[3,2-b]pyridin-1-yl]ethanone]
25.1 | O=C(Cn1ccc2ncc(-c3cccc(Cl)c3F)cc21)N1CCC1 [Example 453, 1-(Azetidin-1-yl)-2-[6-(3-chloro-2-fluoro-phenyl)pyrrolo[3,2-b]pyridin-1-yl]ethanone]
25.1 | Cc1cccc(-c2cnc3ccn(CC(=O)N4CC(F)C4)c3c2)c1F [Example 454, 1-(3-Fluoroazetidin-1-yl)-2-[6-(2-fluoro-3-methyl-phenyl)pyrrolo[3,2-b]pyridin-1-yl]ethanone]
20 | Cc1c(F)ccc(-c2cnc3ccn(CC(=O)N(C)C)c3c2)c1F [Example 447, 2-[6-(2,4-Difluoro-3-methyl-phenyl)pyrrolo[3,2-b]pyridin-1-yl]-N,N-dimethyl-acetamide]
20 | CN(C)C(=O)Cn1ccc2ncc(-c3cccc(Cl)c3F)cc21 [Example 448, 2-[6-(3-Chloro-2-fluoro-phenyl)pyrrolo[3,2-b]pyridin-1-yl]-N,N-dimethyl-acetamide]
15.8 | O=C(Cn1ccc2ncc(-c3ccccc3F)cc21)N1CC(F)C1 [Example 457, 1-(3-Fluoroazetidin-1-yl)-2-[6-(2-fluorophenyl)pyrrolo[3,2-b]pyridin-1-yl]ethanone]
